These results are taken from patent US20050266420A1, “Multigene predictors of response to chemotherapy” (Board of Regents, The University of Texas System, priority 2004, published 2005).

Where two headings read alike, the source gives them in different places. Some results are limits rather than exact numbers.

For assay [1], the system named is ZR75.1 breast cancer cells. Put plainly: ATP cell viability assay (CellTiter-Glo) after siRNA transfection. It counts as cell-based, human. As to conditions: 48 h drug exposure; for Effect of Tau down-regulation on sensitivity to the drug: ZR75.1 cells, Tau siRNA; for IC50: Homo sapiens, ZR-75-1, 48 h, read-out: IC50 concentration of paclitaxel. The text has this: Small interfering RNA studies. Two siRNA oligonucleotides directed against microtubule associated protein Tau (genbank accession number NM_016835.1) were ordered from Qiagen. Breast cancer cell lines were screened for Tau protein expression by Western blot analysis using a monoclonal anti-Tau antibody (#13-1400: clone T14, Zymed, CA). ZR75.1 cells were selected for siRNA studies and were transfected with a control siRNA (directed against lamin) or 2 distinct anti-Tau siRNA (5′-[…]-3′ (SEQ ID NO:194) and 5′-[…]-3′) (SEQ ID NO:195) constructs. Five hundred nanograms of siRNA was transfected using 1.5 μl RNAiFect (Qiagen) onto 1-3×10^4 cells in 96-well plates or 5 μg of siRNA was transfected using 15 μl RNAiFect (Qiagen) onto 1.5-4×10^5 cells in 6-well plates following the manufactures instructions.
In vitro apoptosis and cell growth assays. Twenty-four hours after siRNA transfection, the medium was changed and cells were treated with various concentrations of paclitaxel and epirubicin. Proliferation rates were determined with CellTiter-Glo® Luminescent Cell Viability Assay, (Promega) after 48 hours of drug exposure according to the manufacturer's instructions. Chemosensitivity was determined from three separate experiments. Growth curves were generated with GraphPad Prism 4.01 (GraphPad Software, San Diego, Calif.). The effect of Tau expression on drug uptake was assayed using a fluorescent-conjugated paclitaxel (Oregon Green 488 paclitaxel, Molecular probes, Eugene, Oreg.) or spontaneously fluorescent epirubicin (Kimichi-Sarfaty et al., 2002; Harris et al., 2003). Forty-eight hours after siRNA transfection, 3×10^5 cells were trypsinized and resuspended in 1 ml of regular medium containing 1 μM of fluorescent paclitaxel or 16 μM of epirubicin and incubated at 37° C. for 20 to 80 min. The pellet was resuspended in 400 μl of phosphate-buffered saline before FACS analysis (Kimichi-Sarfaty et al., 2002) using CellQuest software (BD Biosciences, San Jose, Calif.). Data were recorded by the FACScan as arbitrary units. The amount of fluorescence per cell (arbitrary fluorescence units) was taken as the measure of drug uptake. […] Fluorescence paclitaxel uptake was also observed using an inverted fluorescent microscope.
Down regulation of Tau expression in breast cancer cells increases sensitivity to paclitaxel in vitro. […] The inventors assessed Tau protein expression in breast cancer cell lines with Western blot using an anti-Tau monoclonal antibody that recognizes Tau irrespectively of phosphorylation status. […] Twenty-four hours after siRNA transfection, cells were exposed to various concentrations of paclitaxel or epirubicin and cell viability was assessed after 48 h of drug exposure using an ATP cell viability assay. […]
(In general: ATP-based viability assays read luminescence as a measure of living cells.)

Assay [2] relates to ZR75.1 cells. Briefly: Fluorescent drug uptake by FACS in siRNA-transfected cells. It counts as cell-based, human. The conditions noted are these: 16 μM epirubicin, versus lamin knocked-down cells. On the procedure: In vitro apoptosis and cell growth assays. Twenty-four hours after siRNA transfection, the medium was changed and cells were treated with various concentrations of paclitaxel and epirubicin. Proliferation rates were determined with CellTiter-Glo® Luminescent Cell Viability Assay, (Promega) after 48 hours of drug exposure according to the manufacturer's instructions. Chemosensitivity was determined from three separate experiments. Growth curves were generated with GraphPad Prism 4.01 (GraphPad Software, San Diego, Calif.). […] Data were recorded by the FACScan as arbitrary units. The amount of fluorescence per cell (arbitrary fluorescence units) was taken as the measure of drug uptake. […] Fluorescence paclitaxel uptake was also observed using an inverted fluorescent microscope.
Tau protein reduces paclitaxel binding to tubulin and interferes with the paclitaxel induced stabilization in vitro. […] To estimate paclitaxel binding to tubulin in the presence or absence of Tau protein, the uptake of fluorescent paclitaxel in Tau siRNA-treated (Tau knock down) cells and lamin siRNA-treated control cells were measured. Forty-four hours after siRNA transfection, cells were exposed to 1 μM Oregon green-paclitaxel for 20 to 80 min and then analyzed by FACS. The amount of fluorescent paclitaxel in the cells can be assessed by plotting fluorescence intensity in the X-axis and cell count on the Y-axis. […]
(In general: A flow cytometer gives signals particle by particle.)

The subject of assay [3] is Bovine brain tubulin. Put plainly: Tubulin polymerization assay (OD340). It counts as biochemical. As to conditions: tubulin 20 μM, 37° C.; 20 μM paclitaxel or 15 μM Tau. On the procedure:
(§1) Tubulin polymerization assays. Bovine brain tubulin (2 mg/ml) polymerization assays were performed in 100-μl volumes at 37° C. using the Tubulin Polymerization Assay Kit (Cytoskeleton, Inc., Denver, Colo.) and following the manufacturer recommendations. Purified Tau protein was purchased from Cytoskeleton (ref #TA01). Fluorescent Bodipy-paclitaxel was purchased from Molecular probes (Bodipy 564/570, Molecular probes, Eugene, Oreg.). OD340 was measured every 30 seconds for 30-60 min. The plots show the change in turbidity after correcting the data for the baseline absorbance.
Microtubules are formed in vitro by non-covalent polymerization of tubulin dimers (Desai et al., 1997; Hong et al., 1998). Microtubule associated proteins, GTP and paclitaxel increase microtubule polymerization rates which can be measured by observing an increase in absorbance at 340 nm (Lu and Wood, 1993; Rao et al., 1999). The inventors hypothesized that Tau may reduce pharmacological tubulin polymerization induced by paclitaxel. The inventors performed a kinetic spectrophotometric tubulin polymerization assay in which Tau and paclitaxel were added together to the tubulin mixture. […] Next, tubulin was pre-incubated with Tau before adding paclitaxel which approximates a more physiological sequence of drug exposure. […]

Assay [4] has as its system tubulin. Put plainly: Competition for fluorescent bodipy-paclitaxel binding to tubulin. Set-up: species or system bovine. As to conditions: 30 min pre-incubation; Tau 15 μM or unlabelled paclitaxel 20 μM; fluorescent paclitaxel 5 μM. The method, then: as §1
To examine if paclitaxel binding to tubulin is affected by Tau expression, the inventors used fluorescent bodipy-paclitaxel. When fluorescent paclitaxel binds to microtubules it results in enhanced fluorescence. The inventors used this characteristic to assess the competition between Tau and paclitaxel in vitro. Fluorescent paclitaxel (5 μM) was added to a tubulin solution after 30 minutes pre-incubation with Tau (15 μM) or regular (non-fluorescent) paclitaxel (20 μM), or reaction buffer alone and fluorescence was measured 30 minutes later. […] In the control wells, the addition of fluorescent paclitaxel induced polymerization and after 30 minutes, fluorescence emission was high.

For `COc1cccc2c1C(=O)c1c(O)c3c(c(O)c1C2=O)C[C@@](O)(C(=O)CO)C[C@@H]3O[C@H]1C[C@H](N)[C@@H](O)[C@H](C)O1` [epirubicin], the “Effect of Tau down-regulation on sensitivity to the drug” value in assay [1] is “did not result in increased sensitivity”. Further, the “Fluorescence uptake in Tau knocked-down cells” value in assay [2] was “slightly decreased”.
As for `CC(=O)O[C@H]1C(=O)[C@@]2(C)[C@H]([C@H](OC(=O)c3ccccc3)[C@]3(O)C[C@H](OC(=O)[C@H](O)[C@@H](NC(=O)c4ccccc4)c4ccccc4)C(C)=C1C3(C)C)[C@]1(OC(C)=O)CO[C@@H]1C[C@@H]2O` [paclitaxel], the IC50 in assay [1] (ZR75.1 cells with Tau siRNA knock down) was 100 nM; in assay [1] (ZR75.1 control cells (lamin siRNA or no siRNA)), more than 10000 nM. The “Effect of Tau down-regulation on sensitivity to the drug” value in assay [1] was “significantly increased the sensitivity”. Moreover, the Tubulin polymerization result in assay [3] is recorded as “induced tubulin polymerization”. Further, the “Competition with fluorescent paclitaxel for binding to microtubules” value in assay [4] is reported as “very high”.
